Consider 15 molecules from publication PMC6264317, “Acetylcholinesterase-inhibiting Alkaloids from Zephyranthes concolor” (Molecules, 2011).

One data set has as its system HIV-1 (NL4-3). Briefly: Anti-HIV activity in MT-4 cells (MTT viability of infected cells). It is filed as cell-based. The note with it: for EC50: Human immunodeficiency virus 1, NL43, MT4, 120 h, read-out: EC50 HIV-1 (NL4-3): effective concentration needed to inhibit 50% HIV-induced cell death, 5 days. As for the experimental part: (§1) Anti-HIV activity and cytotoxicity were evaluated in human MT-4 cells based on viability of cells that have been infected or not infected with HIV-1 following exposure to various concentrations of the test compound according to the procedure previously described. After proliferation for 5 days the number of viable MT-4 cells was quantified by tetrazolium-based colorimetric method (MTT). The HIV-1 NL4-3 virus used was a molecular clone obtained from the National Institute of Health (Bethesda, USA) that was propagated and tittered in MT-4 cells. All anti-HIV evaluations were done in triplicate in two separate experiments.

The nature of data set [1]: Cytotoxicity in non-infected MT-4 cells (MTT). As to conditions: human. It is filed as cell-based, human. As for the experimental part:
as §1

The subject of the next data set is human MT-4 cells. The experiment in a line: Cytotoxicity in non-infected MT-4 cells (MTT). Format: cell-based. As to conditions: 5 days. As for the experimental part:
as §1

Data set [2] concerns the target T1, electric eel acetylcholinesterase (Electrophorus electricus, UniProt O42275).
T1 construct: purchased Sigma Aldrich Chemie (Stenheim, Germany) type V-S
The experiment in a line: biochemical. As for the experimental part: The assay for measuring acetylcholinesterase (AChE) inhibitory activity was performed in 96 well microtitre plates as previously described. […] Acetylcholinesterase from Electrophorus electricus L. (electric eel) type V-S lyophilized powder, acetyl-thiocholine iodide (ATCI), and 5,5′-dithio-bis[2-nitrobenzoic acid] (DNTB) were obtained from Sigma Aldrich Chemie (Stenheim, Germany). Fifty microliters of AChE solution (500 U/mL) in phosphate buffer (8 mM K2HPO4, 2.3 mM NaH2PO4, 0.15 M NaCl, 0.05% Tween 20, pH 7.6), and 50 μL of the compound dissolved in the same buffer were added to each of the wells. The plates were incubated for 30 min at room temperature before addition of 100 μL of the substrate solution (0.1 M NaH2PO4, […], 0.6 mM ATCI in Millipore water, pH 7.5). Absorbance was recorded in a Labsystems Microplate Reader (Helsinki, Finland) at 405 nm after 6 min. Enzyme activity was calculated as percentage compared to an assay using a buffer without the tested compound. The AChE inhibitory data were analysed with the Prism software package (Graph Pad Inc., San Diego, USA).

Data set [3] addresses electric eel acetylcholinesterase. The note with it: cited from earlier work.
Another data set deals with HIV-1. As to conditions: human MT4 cells; cited from earlier work.
The test system of another data set is human MT4 cells. As to conditions: cited from earlier work.
Setting [4] is: in vitro, read-out: EC50, inhibition of electric eel acetylcholinesterase in vitro.
Where [5] appears, read: means ± SD of three determinations (10^−8 to 10^−3 M), read-out: EC50 (M), acetylcholinesterase inhibitory activity.

Molecules are shown by their SMILES. In brackets after ≈: the same amount, converted by molar mass. Read-outs that look alike come from different tables or passages of the source.

T1 sequence (O42275 24-633): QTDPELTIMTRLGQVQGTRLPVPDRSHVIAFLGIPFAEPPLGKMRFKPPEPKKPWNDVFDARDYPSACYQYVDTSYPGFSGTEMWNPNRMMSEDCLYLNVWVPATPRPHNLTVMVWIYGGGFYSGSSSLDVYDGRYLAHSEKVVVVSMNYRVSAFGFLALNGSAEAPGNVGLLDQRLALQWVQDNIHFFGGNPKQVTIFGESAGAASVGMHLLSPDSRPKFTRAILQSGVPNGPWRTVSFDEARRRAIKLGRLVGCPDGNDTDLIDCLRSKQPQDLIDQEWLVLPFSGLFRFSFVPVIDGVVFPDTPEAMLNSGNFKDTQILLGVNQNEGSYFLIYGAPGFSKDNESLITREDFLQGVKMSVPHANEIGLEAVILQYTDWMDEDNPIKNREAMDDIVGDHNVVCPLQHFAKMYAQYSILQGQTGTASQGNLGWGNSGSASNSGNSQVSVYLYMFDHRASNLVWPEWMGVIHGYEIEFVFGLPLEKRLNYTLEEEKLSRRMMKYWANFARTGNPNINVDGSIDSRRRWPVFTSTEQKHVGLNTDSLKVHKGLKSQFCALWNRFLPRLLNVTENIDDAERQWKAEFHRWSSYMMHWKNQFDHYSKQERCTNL

Consider `c1cc(CN2CCCNCCNCCCNCC2)ccc1CN1CCCNCCNCCCNCC1` [AMD3100, reference compound], for which the EC50 in the data set with HIV-1 (NL4-3) was 0.001 µg/mL (≈ 0.00199 µM). The same molecule registered a CC50 at 5 days in data set [1] greater than 5 µg/mL.

As to `Cc1cn([C@H]2C[C@H](N=[N+]=[N-])[C@@H](CO)O2)c(=O)[nH]c1=O` [AZT, reference compound], in the data set with HIV-1 (NL4-3) (5 days), the “EC50 HIV-1 (NL4-3): effective concentration needed to inhibit 50% HIV-induced cell death” value stood at 0.0007 µg/mL (≈ 0.00262 µM). In the data set with human MT-4 cells, the “CC50 No virus: concentration needed to induce 50% death of non-infected cells” value was greater than 1 µg/mL.

Consider `COC1C=CC23CCN(C)Cc4ccc(O)c(c42)OC3C1` (centres unmarked) [Chlidanthine (1), chlidanthine], for which the EC50 in data set [2] (setting [4]) is 2.4e-05 M; in data set [2] (setting [5]), 2.41e-05 M; in the data set with HIV-1 (NL4-3), greater than 25 µg/mL. This molecule gave a CC50 at 5 days in data set [1] greater than 25 µg/mL.

As for `COc1ccc2c3c1O[C@H]1C[C@H](O)C=C[C@@]31CCNC2` [Epinorgalanthamine (6), epinorgalanthamine], the EC50 is greater than 13 µg/mL in the data set with HIV-1 (NL4-3) and 9.6 µM in data set [3] (previously reported, read-out: acetylcholinesterase inhibitory properties). The same molecule showed a CC50 at 5 days in data set [1] of 13 µg/mL (≈ 47.6 µM).

Regarding `COc1ccc2c3c1O[C@H]1C[C@@H](O)C=C[C@@]31CCN(C)C2` [Galanthamine (2), galanthamine, reference compound], in the data set with HIV-1 (NL4-3), the EC50 is greater than 25 µg/mL. Further, in data set [1], the CC50 at 5 days was greater than 25 µg/mL.

Take `COc1ccc2c3c1O[C@H]1C[C@@H](O)C=C[C@@]31CC[N+](C)([O-])C2` (some centres unmarked) [Galanthamine N-oxide (3), galanthamine N-oxide]: the figures for the EC50 (in data set [2] (setting [4]); in data set [2] (setting [5]); in the data set on HIV-1 (NL4-3)) were 2.6e-05 M, 2.62e-05 M and greater than 25 µg/mL, respectively. Besides, in data set [1], the CC50 at 5 days was greater than 25 µg/mL.

For `COc1cc2c(cc1O)[C@@H]1[C@H](OC2=O)[C@@H](OC)[C@@H]2O[C@@]23CCN(C)[C@@H]13` [Galwesine (5), galwesine], the “acetylcholinesterase inhibition in words” value in data set [2] (at 10^−3 M) was “inactive”. The figures for the EC50 (in data set [2] (setting [5]); in the data set with HIV-1 (NL4-3)) were greater than 0.001 M and greater than 71.4 µg/mL, respectively. In data set [1], this molecule yielded a CC50 at 5 days of 71.4 µg/mL (≈ 206 µM).

`O[C@H]1[C@H]2c3cc4c(cc3CN3CCC(=C[C@@H]1O)[C@H]23)OCO4` [Lycorine (4), lycorine]: in the data set on HIV-1 (NL4-3), the EC50 was greater than 0.5 µg/mL. In data set [1], half-maximal cytotoxicity (CC50 at 5 days) was put at 0.48 µg/mL (≈ 1.67 µM). The “acetylcholinesterase inhibitory activity in words” value in data set [3] was “inactive”. Further, in the data set on HIV-1, the “anti-HIV-1 activity ID50” value is 0.4 µg/mL and the “therapeutic index TI50” value is on record as 1.9. For the same molecule, the “cytotoxicity TC50” value in the data set on human MT4 cells was 0.75 µg/mL.

For the molecule `Cc1ccnc2c1NC(=O)c1cccnc1N2C1CC1` [Nevirapine, reference compound], in the data set with HIV-1 (NL4-3), the EC50 is 0.034 µg/mL (≈ 0.128 µM). The molecule also gave a CC50 at 5 days in data set [1] greater than 2 µg/mL.

In the case of `COc1ccc2c3c1O[C@H]1C[C@H](O)CC[C@@]31CCNC2` [epinorlycoramine], the “acetylcholinesterase inhibitory activity in words” value in data set [3] was “completely lost”.

Consider `CO[C@@H]1C=C[C@@]23c4cc5c(cc4CN(C[C@@H]2O)[C@H]3C1)OCO5` [haemanthamine], for which the “therapeutic index TI50” value with HIV-1 is recorded as “even lower therapeutic indices than lycorine”.

On to `COc1cc2c(cc1OC)[C@H]1[C@H]3C(=CC[C@H]1OC2=O)CCN3C` [homolycorine], for which the “therapeutic index TI50” value in the data set with HIV-1 is “even lower therapeutic indices than lycorine”.

`COc1ccc2c3c1O[C@H]1C[C@@H](O)CC[C@]31CCN(C)C2` [lycoramine]: the “acetylcholinesterase inhibitory activity in words” value in data set [3] is “completely lost”.

Turning to `CN1CC[C@@]23C=C[C@H](O)C[C@@H]2Oc2c(O)ccc(c23)C1` [sanguinine], the “increase of the AChE inhibitory activity relative to galanthamine” value in data set [3] is reported as roughly 10 fold.

For the molecule `c1ccc2c(c1)ncc1cc3c(cc12)OCO3` [trisphaeri-dine, trisphaeridine], the “therapeutic index TI50” value with HIV-1 is given as “even lower therapeutic indices than lycorine”.
